“Also recorded” adds a separate entry of the source.
Key:
ACTH and cortisol levels = details: Cushing's syndrome patients; cited from earlier work
glucocorticoid receptor = glucocorticoid receptor (Homo sapiens, UniProt P04150); details: HepG2 cells; cited from earlier work
[1] = system: plasma ACTH, cortisol levels; assay: Plasma ACTH, cortisol and DST in a GRADIENT study patient; type: in vivo, human; details: FIG. 2 patient
From the text: (§1) The following protocol describes the GRADIENT clinical trial, an on-going, randomized, double-blind, placebo-controlled Phase 3 study which focuses on patients with hypercortisolism secondary to adrenal adenoma(s) or hyperplasia (ClinicalTrials.gov Identifier: NCT04308590). This study includes patients with cortisol-secreting adrenal adenomas or hyperplasia associated with DM/IGT (diabetes […] (DM) and/or impaired glucose tolerance (IGT)) and/or uncontrolled systolic hypertension. The study enrolled patients with hypercortisolism due to cortisol secreting adrenal adenomas or hyperplasia. These patients may or may not present the classic clinical manifestations of overt Cushing syndrome (i.e., facial appearance, buffalo hump, striae, etc.). Patients were identified as suffering from cortisol-secreting adrenal gland tumors based on abnormal dexamethasone suppression test (DST) and low ACTH. Patients could receive medications that were commonly used to treat diabetes, hypertension, or dyslipidemia if required. Following screening, those patients meeting study criteria were randomly assigned to receive doses of either placebo or relacorilant for 22 weeks of treatment. Patient follow-up was within 28 days of the last dose. Total patient participation in the study was up to 32 weeks. The GRADIENT study design is illustrated in FIG. 1. Patients discussed herein were participants in the GRADIENT study. […] The starting dose at Baseline was 100 mg relacorilant or matching placebo once daily for 2 weeks, after which the dose was increased to 200 mg. As tolerated, the dose was then increased by 100 mg to 300 mg once daily after 4 weeks, and, as tolerated, the dose was then increased to 400 mg once daily after another 4 weeks. If a dose was not tolerated, dose interruption, dose reduction, and dose re-escalation were allowed. Patients were maintained at a once-daily dose of 400 mg, or at their highest tolerated dose. Dose titrations after 18 weeks were not permitted. Patients who completed the study were permitted to continue relacorilant treatment in an extension study if they have at least 80% adherence with scheduled dosing (by capsule counts), and are expected to maintain clinical benefit from the study drug. Although not expected to regress, adrenal tumors progress very slowly, and rarely progress into overt Cushing syndrome ([…] et al. 2016 Eur J Endocrinol. 175 (2):G1-[…]. doi: 10.1530/EJE-16-0467). Patients receiving placebo continued to receive their previously prescribed medications; thus, although the placebo was not expected to provide additional benefit to those patients receiving placebo, neither was any detriment expected. […]

pituitary macroadenomas = details: following administration of relacorilant; cited from earlier work
[2] = system: cortisol-secreting adrenal adenoma; assay: CT imaging of adrenal gland tumor size in GRADIENT study patients; type: in vivo, human
From the text: as §1, with “expected. Relacorilant was supplied as 100 mg capsules for oral dosing.” for “expected.”

glucocorticoid receptor, sequence (P04150 whole entry): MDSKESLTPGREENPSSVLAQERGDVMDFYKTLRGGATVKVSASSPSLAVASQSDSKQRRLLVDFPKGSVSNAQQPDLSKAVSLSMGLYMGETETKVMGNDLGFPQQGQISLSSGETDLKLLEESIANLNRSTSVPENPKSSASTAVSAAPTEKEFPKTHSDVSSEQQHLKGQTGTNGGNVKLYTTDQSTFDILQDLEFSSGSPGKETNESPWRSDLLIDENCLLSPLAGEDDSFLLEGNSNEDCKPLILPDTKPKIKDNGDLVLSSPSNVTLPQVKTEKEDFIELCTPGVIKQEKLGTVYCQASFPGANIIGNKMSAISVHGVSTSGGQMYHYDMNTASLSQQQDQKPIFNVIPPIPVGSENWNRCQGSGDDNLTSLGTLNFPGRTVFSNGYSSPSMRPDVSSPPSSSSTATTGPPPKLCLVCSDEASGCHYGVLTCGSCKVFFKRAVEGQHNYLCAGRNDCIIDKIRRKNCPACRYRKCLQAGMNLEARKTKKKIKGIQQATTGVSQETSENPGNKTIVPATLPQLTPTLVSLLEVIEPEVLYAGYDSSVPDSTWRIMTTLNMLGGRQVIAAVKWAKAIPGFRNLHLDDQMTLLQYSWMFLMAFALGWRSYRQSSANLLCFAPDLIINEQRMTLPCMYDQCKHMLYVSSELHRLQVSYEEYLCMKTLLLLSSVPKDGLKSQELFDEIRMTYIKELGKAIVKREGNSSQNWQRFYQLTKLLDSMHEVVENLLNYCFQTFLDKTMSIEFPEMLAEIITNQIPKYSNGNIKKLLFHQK

Compound	ACTH levels (in words) (ACTH and cortisol levels)	cortisol levels (in words) (ACTH and cortisol levels)	activity of tyrosine aminotransferase (TAT) (in words) (glucocorticoid receptor)	cortisol levels (in words) ([1]; after relacorilant treatment)	dexamethasone suppression test (DST) (in words) ([1]; after relacorilant treatment)	ACTH levels (in words) ([1]; at 6 months of relacorilant administration)	plasma ACTH level ([1]; since 6 months of relacorilant, undetectable before treatment)	pituitary macroadenoma size (in words) (pituitary macroadenomas)	size of adrenal adenoma (CT) ([2]; FIG. 2 patient, benign cortisol-secreting adenoma, daily relacorilant 100 up to 400 mg/day for almost two years, initial size 4.2 cm)	degenerative changes inside the adenoma (CT) ([2]; FIG. 2 patient, after almost two years of daily relacorilant, not present in initial scan)	maximum tumor dimension (CT measurement line) ([2]; FIG. 3 patient, at least 3 months daily relacorilant 100 up to 400 mg/day, 34.09 mm / 34.08 mm before treatment)	change in adrenal gland tumor size following treatment (in words) ([2]; individual patients, daily relacorilant up to 400 mg/day)
CC#C[C@]1(O)CC[C@H]2[C@@H]3CCC4=CC(=O)CCC4=C3[C@@H](c3ccc(N(C)C)cc3)C[C@@]21C [mifepristone]	increased	increased	decreases									
Cn1cc(S(=O)(=O)N2CCC3=Cc4c(cnn4-c4ccc(F)cc4)C[C@]3(C(=O)c3cc(C(F)(F)F)ccn3)C2)cn1 [relacorilant, (R)-(1-(4-fluorophenyl)-6-((1-methyl-1H-pyrazol-4-yl)sulfonyl)-4,4a,5,6,7,8-hexahydro-1H-pyrazolo[3,4-g]isoquinolin-4a-yl)(4-(trifluoromethyl)pyridine-2-yl)methanone]				decreased	normalized	normalized	15 to 18 pg/mL	shrink	3.1 cm	exhibits areas of degeneration; also recorded: developed fat droplets	30.99 mm	reduced; also recorded: decreased
